Species on record: Rattus norvegicus
Assay: Open TG-GATES - Regimen: Single
Format: toxicity, organism-based, Sprague-Dawley
Parameters: regimen Single, gender Male, age 6 weeks
Conditions: in vivo, iv, 0 mg/kg, route intravenous injection, dose level Control; for APTT / Bas / Eos / Fbg / Hb / Ht / Lym / MCH / MCHC / MCV / Mono / PT / Plat / RBC / Ret / WBC: tissue Blood; for KIDNEY_L / KIDNEY_R / KIDNEY_TOTAL: tissue Kidney; for LIVER: tissue Liver; for ALP / ALT / AST / BUN / CRE / Ca / Cl / DBIL / GLC / IP / K / LDH / Na / PL / RALB / TBIL / TC / TG / TP / gamma-GTP: tissue Plasma

## CC(=O)OCC1=C(C(=O)O)N2C(=O)[C@@H](NC(=O)Cc3cccs3)[C@H]2SC1 [CEPHALOTHIN]
3 h
  TERMINAL_BW: 214.5 g
  APTT: 22.3 s
  Bas: 0%
  Eos: 0.8%
  Fbg: 274.6 mg/dL
  Hb: 13.2 g/dL
  Ht: 38.5%
  Lym: 80%
  MCH: 20.9 pg
  MCHC: 34.2%
  MCV: 61.2 fL
  Mono: 2.8%
  PT: 16.5 s
  Plat: 124.3 x10_4/uL
  RBC: 629.6 x10_4/ul
  Ret: 6.1%
  WBC: 84.8 x10_2/uL
  KIDNEY_L: 1 g
  KIDNEY_R: 1 g
  KIDNEY_TOTAL: 2 g
  LIVER: 10.2 g
  ALP: 1573.2 IU/L
  ALT: 46.4 IU/L
  AST: 85.6 IU/L
  BUN: 12.4 mg/dL
  CRE: 0.2 mg/dL
  Ca: 10.5 mg/dL
  Cl: 107.4 meq/L
  DBIL: 0 mg/dL
  GLC: 176.2 mg/dL
  IP: 7.6 mg/dL
  K: 4.3 meq/L
  LDH: 171.6 IU/L
  Na: 142 meq/L
  PL: 117.2 mg/dL
  RALB: 2.8 g/dL
  TBIL: 0.016 mg/dL
  TC: 60.8 mg/dL
  TG: 69.2 mg/dL
  TP: 5.1 g/dL
  gamma-GTP: 1 IU/L
6 h
  TERMINAL_BW: 214.9 g
  APTT: 22.2 s
  Bas: 0%
  Eos: 0.8%
  Fbg: 279.4 mg/dL
  Hb: 13.1 g/dL
  Ht: 38.1%
  Lym: 74.2%
  MCH: 21.1 pg
  MCHC: 34.3%
  MCV: 61.7 fL
  Mono: 2.4%
  PT: 16.2 s
  Plat: 129.1 x10_4/uL
  RBC: 618.8 x10_4/ul
  Ret: 6.4%
  WBC: 81.7 x10_2/uL
  KIDNEY_L: 1 g
  KIDNEY_R: 1 g
  KIDNEY_TOTAL: 2 g
  LIVER: 9.1 g
  ALP: 1313 IU/L
  ALT: 41.6 IU/L
  AST: 80 IU/L
  BUN: 9.2 mg/dL
  CRE: 0.2 mg/dL
  Ca: 10.2 mg/dL
  Cl: 105.4 meq/L
  DBIL: 0.002 mg/dL
  GLC: 184.8 mg/dL
  IP: 9.3 mg/dL
  K: 4.3 meq/L
  LDH: 176.2 IU/L
  Na: 141.4 meq/L
  PL: 122 mg/dL
  RALB: 2.8 g/dL
  TBIL: 0.02 mg/dL
  TC: 67.8 mg/dL
  TG: 41 mg/dL
  TP: 5.1 g/dL
  gamma-GTP: 1.4 IU/L
9 h
  TERMINAL_BW: 217.3 g
  APTT: 23.9 s
  Bas: 0%
  Eos: 1%
  Fbg: 305.4 mg/dL
  Hb: 13.5 g/dL
  Ht: 39.5%
  Lym: 81.4%
  MCH: 21 pg
  MCHC: 34%
  MCV: 61.6 fL
  Mono: 2%
  PT: 15.7 s
  Plat: 132.6 x10_4/uL
  RBC: 641.6 x10_4/ul
  Ret: 6.4%
  WBC: 93.1 x10_2/uL
  KIDNEY_L: 0.9 g
  KIDNEY_R: 1 g
  KIDNEY_TOTAL: 1.9 g
  LIVER: 9 g
  ALP: 1321.4 IU/L
  ALT: 37.2 IU/L
  AST: 81.2 IU/L
  BUN: 9.2 mg/dL
  CRE: 0.2 mg/dL
  Ca: 10.4 mg/dL
  Cl: 106.2 meq/L
  DBIL: 0 mg/dL
  GLC: 186.6 mg/dL
  IP: 9.6 mg/dL
  K: 4.3 meq/L
  LDH: 157.4 IU/L
  Na: 141.6 meq/L
  PL: 121.8 mg/dL
  RALB: 2.9 g/dL
  TBIL: 0.022 mg/dL
  TC: 67.4 mg/dL
  TG: 60 mg/dL
  TP: 5.3 g/dL
  gamma-GTP: 1.2 IU/L
24 h
  TERMINAL_BW: 225.8 g
  APTT: 21 s
  Bas: 0%
  Eos: 0.8%
  Fbg: 302.4 mg/dL
  Hb: 12.9 g/dL
  Ht: 37.9%
  Lym: 79.2%
  MCH: 21.2 pg
  MCHC: 33.9%
  MCV: 62.3 fL
  Mono: 2.4%
  PT: 16.5 s
  Plat: 128.1 x10_4/uL
  RBC: 607.2 x10_4/ul
  Ret: 6.3%
  WBC: 89.6 x10_2/uL
  KIDNEY_L: 1 g
  KIDNEY_R: 1 g
  KIDNEY_TOTAL: 1.9 g
  LIVER: 10.8 g
  ALP: 1398.6 IU/L
  ALT: 44.4 IU/L
  AST: 76.2 IU/L
  BUN: 17.2 mg/dL
  CRE: 0.2 mg/dL
  Ca: 10.9 mg/dL
  Cl: 105.8 meq/L
  DBIL: 0 mg/dL
  GLC: 189.4 mg/dL
  IP: 7.3 mg/dL
  K: 4.5 meq/L
  LDH: 221 IU/L
  Na: 142.4 meq/L
  PL: 145.8 mg/dL
  RALB: 3 g/dL
  TBIL: 0.012 mg/dL
  TC: 74.4 mg/dL
  TG: 74.6 mg/dL
  TP: 5.5 g/dL
  gamma-GTP: 1.4 IU/L

Source: ChEMBL document CHEMBL3885861, “Open TG-GATES”
